{"source": "patent US20080207864A1", "about": "“Organosilanes, Process For Production of the Same, and Use Thereof” (priority 2004, published 2008)", "test": "Solubility in an organic solvent", "assay_type": "physicochemical", "conditions": "1 μml of compound added to 1 ml solvent, mixed 15 minutes; chloroform for Examples 7 to 8, toluene for Examples 9 to 10 and Comparative Example 1", "protocol": "Solubility of organic silane compounds synthesized in Examples 7 to 10, and 6,8,11,13-tetra(N,N-diphenylamino)pentacene of Comparative Example 1 in an organic solvent was assessed. More particularly, 1 μml of each compound was added to 1 ml of the following organic solvent, and this was mixed for 15 minutes.\nExamples 9 to 10 and Comparative Example 1\nEach of organic silane compounds of Examples 7 to 10 was dissolved in an organic solvent to obtain a transparent solution."}
{"molecule": "c1ccc(N(c2ccccc2)c2ccc(N(c3ccccc3)c3ccccc3)c3cc4c(N(c5ccccc5)c5ccccc5)c5cc6ccccc6cc5c(N(c5ccccc5)c5ccccc5)c4cc23)cc1", "note": "[Comparative Example 1, 6,8,11,13-tetra(N,N-diphenylamino)pentacene]", "values": [{"measurement": "Solubility in an organic solvent", "value": "only dispersed and not dissolved in an organic solvent"}]}
